Key:
[1] = biological target: RAC-gamma serine/threonine-protein kinase (Homo sapiens) (UniProt Q9Y243); assay: Inhibition of human AKT3 at 500 nM by HotSpot assay relative to control
[2] = biological target: T1, NUAK family SNF1-like kinase 1 (Homo sapiens) (UniProt O60285); assay: Inhibition of human ARK5 at 500 nM by HotSpot assay relative to control
T1 sequence (whole entry): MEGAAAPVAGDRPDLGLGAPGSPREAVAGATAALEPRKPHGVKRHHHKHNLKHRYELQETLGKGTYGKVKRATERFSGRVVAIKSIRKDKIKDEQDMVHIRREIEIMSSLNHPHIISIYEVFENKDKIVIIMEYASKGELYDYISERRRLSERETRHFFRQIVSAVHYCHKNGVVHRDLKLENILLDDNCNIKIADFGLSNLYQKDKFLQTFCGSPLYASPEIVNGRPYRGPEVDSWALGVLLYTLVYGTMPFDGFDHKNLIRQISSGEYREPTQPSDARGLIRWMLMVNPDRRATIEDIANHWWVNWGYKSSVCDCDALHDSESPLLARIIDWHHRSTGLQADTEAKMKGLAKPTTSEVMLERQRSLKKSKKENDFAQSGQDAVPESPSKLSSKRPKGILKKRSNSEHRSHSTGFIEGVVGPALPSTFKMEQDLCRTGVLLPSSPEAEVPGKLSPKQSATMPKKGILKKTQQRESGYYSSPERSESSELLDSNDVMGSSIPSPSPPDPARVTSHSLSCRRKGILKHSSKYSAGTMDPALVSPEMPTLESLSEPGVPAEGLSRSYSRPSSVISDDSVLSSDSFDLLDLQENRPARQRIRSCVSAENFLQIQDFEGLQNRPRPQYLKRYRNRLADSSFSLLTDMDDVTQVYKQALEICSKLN

[3] = biological target: T2, Serine/threonine-protein kinase BRSK1 (Homo sapiens) (UniProt Q8TDC3); assay: Inhibition of human BRSK1 at 500 nM by HotSpot assay relative to control
T2 sequence (whole entry): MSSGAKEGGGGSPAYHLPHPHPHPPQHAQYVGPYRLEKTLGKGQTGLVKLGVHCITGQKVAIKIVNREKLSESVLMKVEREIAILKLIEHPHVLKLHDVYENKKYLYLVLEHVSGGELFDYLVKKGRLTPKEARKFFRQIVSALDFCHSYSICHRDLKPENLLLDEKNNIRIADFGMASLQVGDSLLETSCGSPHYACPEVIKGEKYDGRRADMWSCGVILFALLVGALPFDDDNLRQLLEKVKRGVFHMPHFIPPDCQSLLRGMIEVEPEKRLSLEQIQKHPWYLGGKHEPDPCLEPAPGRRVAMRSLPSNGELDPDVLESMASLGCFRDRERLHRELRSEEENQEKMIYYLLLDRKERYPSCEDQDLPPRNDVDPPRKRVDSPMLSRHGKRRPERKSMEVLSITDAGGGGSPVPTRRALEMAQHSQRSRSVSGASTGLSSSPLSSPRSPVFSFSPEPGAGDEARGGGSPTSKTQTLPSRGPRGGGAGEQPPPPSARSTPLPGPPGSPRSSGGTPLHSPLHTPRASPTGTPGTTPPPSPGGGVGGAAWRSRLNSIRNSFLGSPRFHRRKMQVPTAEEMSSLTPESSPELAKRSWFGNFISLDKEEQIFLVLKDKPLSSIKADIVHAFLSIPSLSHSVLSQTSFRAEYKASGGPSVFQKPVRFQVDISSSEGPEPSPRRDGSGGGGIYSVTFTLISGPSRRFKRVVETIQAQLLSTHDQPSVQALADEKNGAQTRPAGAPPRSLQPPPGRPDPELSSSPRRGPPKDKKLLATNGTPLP

[4] = biological target: Tyrosine-protein kinase BTK (Homo sapiens) (UniProt Q06187); assay: Inhibition of human BTK at 500 nM by HotSpot assay relative to control
Chain of Tyrosine-protein kinase BTK (Homo sapiens) (Q06187 whole entry): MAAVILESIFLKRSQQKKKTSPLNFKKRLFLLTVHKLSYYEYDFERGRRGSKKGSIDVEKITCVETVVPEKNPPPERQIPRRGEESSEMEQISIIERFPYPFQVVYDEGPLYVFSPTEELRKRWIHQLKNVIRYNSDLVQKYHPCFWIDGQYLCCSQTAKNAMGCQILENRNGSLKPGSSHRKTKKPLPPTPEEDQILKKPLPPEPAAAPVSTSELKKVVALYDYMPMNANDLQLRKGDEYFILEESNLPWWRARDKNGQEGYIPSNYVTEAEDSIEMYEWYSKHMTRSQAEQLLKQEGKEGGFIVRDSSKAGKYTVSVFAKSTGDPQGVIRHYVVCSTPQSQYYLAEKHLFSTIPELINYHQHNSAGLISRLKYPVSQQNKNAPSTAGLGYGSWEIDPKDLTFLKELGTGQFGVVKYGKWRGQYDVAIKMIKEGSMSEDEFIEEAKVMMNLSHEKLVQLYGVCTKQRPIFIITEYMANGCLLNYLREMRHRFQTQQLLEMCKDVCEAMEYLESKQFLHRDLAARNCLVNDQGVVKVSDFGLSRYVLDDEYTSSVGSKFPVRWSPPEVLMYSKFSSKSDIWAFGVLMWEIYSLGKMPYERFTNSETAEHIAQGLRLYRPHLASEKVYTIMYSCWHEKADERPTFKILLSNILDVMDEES

[5] = biological target: Calcium/calmodulin-dependent protein kinase type II subunit alpha (Homo sapiens) (UniProt Q9UQM7); assay: Inhibition of human CAMK2a at 500 nM by HotSpot assay relative to control
Chain of Calcium/calmodulin-dependent protein kinase type II subunit alpha (Homo sapiens) (Q9UQM7 whole entry): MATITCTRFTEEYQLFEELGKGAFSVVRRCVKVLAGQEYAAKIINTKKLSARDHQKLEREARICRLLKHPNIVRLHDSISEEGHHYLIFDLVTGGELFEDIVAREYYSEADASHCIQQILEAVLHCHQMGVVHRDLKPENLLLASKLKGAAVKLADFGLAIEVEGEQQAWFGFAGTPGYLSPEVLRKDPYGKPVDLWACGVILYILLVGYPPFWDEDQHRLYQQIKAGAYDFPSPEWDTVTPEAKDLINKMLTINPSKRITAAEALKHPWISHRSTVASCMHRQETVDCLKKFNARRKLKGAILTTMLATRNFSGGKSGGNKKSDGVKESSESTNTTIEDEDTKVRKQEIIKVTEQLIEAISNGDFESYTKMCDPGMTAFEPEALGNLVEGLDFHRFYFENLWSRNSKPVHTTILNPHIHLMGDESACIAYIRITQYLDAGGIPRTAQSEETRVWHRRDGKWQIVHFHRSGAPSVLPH

[6] = biological target: Calcium/calmodulin-dependent protein kinase kinase 2 (Homo sapiens) (UniProt Q96RR4); assay: Inhibition of human CAMKK2 at 500 nM by HotSpot assay relative to control
Chain of Calcium/calmodulin-dependent protein kinase kinase 2 (Homo sapiens) (Q96RR4 2-588 limits assumed): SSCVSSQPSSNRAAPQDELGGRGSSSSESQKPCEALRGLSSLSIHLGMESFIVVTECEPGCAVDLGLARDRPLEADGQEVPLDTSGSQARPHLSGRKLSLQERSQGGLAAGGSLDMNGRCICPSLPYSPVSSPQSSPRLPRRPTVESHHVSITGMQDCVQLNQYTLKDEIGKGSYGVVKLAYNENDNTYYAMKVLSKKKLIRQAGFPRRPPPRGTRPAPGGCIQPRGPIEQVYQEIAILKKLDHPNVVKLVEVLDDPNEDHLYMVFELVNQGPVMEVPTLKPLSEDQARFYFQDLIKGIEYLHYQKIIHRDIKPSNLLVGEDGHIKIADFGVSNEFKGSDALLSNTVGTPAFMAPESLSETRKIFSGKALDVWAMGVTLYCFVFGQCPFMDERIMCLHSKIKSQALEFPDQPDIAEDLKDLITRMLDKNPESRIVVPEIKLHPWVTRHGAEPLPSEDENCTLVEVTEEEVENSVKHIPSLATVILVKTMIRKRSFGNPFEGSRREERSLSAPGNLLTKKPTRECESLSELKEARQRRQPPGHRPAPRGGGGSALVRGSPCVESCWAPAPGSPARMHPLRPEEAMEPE

[7] = biological target: CDK4/Cyclin D3 (Homo sapiens) (UniProt P11802+P30281); assay: Inhibition of human CDK4/cyclin D3 at 500 nM by HotSpot assay relative to control; format: protein-complex assay
[8] = biological target: CDK9/Cyclin K (Homo sapiens) (UniProt P50750+O75909); assay: Inhibition of human CDK9/cyclin K at 500 nM by HotSpot assay relative to control; format: protein-complex assay
[9] = biological target: T3, Serine/threonine-protein kinase Chk1 (Homo sapiens) (UniProt O14757); assay: Inhibition of human CHK1 at 500 nM by HotSpot assay relative to control
T3 sequence (whole entry): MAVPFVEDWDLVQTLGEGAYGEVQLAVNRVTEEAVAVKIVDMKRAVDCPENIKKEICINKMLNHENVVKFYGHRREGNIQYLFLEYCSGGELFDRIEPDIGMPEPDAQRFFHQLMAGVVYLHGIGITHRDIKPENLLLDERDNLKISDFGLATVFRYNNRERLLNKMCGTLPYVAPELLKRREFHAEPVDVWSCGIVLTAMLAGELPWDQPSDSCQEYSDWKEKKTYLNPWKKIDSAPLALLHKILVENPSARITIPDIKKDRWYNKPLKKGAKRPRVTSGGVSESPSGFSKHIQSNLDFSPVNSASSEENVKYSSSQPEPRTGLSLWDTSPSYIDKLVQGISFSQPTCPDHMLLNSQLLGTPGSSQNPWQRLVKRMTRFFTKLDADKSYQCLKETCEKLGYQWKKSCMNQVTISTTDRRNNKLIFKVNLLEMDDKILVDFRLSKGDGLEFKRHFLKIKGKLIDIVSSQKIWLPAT

[10] = biological target: Casein kinase I isoform alpha (Homo sapiens) (UniProt P48729); assay: Inhibition of human CK1a1 at 500 nM by HotSpot assay relative to control
Chain of Casein kinase I isoform alpha (Homo sapiens) (P48729 2-337 limits assumed): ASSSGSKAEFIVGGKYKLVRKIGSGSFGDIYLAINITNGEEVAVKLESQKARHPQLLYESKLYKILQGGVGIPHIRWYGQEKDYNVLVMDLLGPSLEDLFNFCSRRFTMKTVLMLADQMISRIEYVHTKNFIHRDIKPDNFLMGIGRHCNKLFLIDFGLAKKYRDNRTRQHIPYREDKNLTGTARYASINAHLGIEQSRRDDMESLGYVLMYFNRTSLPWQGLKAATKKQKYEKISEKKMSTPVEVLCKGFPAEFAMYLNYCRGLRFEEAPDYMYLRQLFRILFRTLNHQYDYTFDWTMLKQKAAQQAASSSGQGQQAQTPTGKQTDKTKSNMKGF

[11] = biological target: Fibroblast growth factor receptor 2 (Homo sapiens) (UniProt P21802); assay: Inhibition of human FGFR2 at 500 nM by HotSpot assay relative to control
[12] = biological target: Serine/threonine-protein kinase MARK1 (Homo sapiens) (UniProt Q9P0L2); assay: Inhibition of human MARK1 at 500 nM by HotSpot assay relative to control
Chain of Serine/threonine-protein kinase MARK1 (Homo sapiens) (Q9P0L2 whole entry, looked up): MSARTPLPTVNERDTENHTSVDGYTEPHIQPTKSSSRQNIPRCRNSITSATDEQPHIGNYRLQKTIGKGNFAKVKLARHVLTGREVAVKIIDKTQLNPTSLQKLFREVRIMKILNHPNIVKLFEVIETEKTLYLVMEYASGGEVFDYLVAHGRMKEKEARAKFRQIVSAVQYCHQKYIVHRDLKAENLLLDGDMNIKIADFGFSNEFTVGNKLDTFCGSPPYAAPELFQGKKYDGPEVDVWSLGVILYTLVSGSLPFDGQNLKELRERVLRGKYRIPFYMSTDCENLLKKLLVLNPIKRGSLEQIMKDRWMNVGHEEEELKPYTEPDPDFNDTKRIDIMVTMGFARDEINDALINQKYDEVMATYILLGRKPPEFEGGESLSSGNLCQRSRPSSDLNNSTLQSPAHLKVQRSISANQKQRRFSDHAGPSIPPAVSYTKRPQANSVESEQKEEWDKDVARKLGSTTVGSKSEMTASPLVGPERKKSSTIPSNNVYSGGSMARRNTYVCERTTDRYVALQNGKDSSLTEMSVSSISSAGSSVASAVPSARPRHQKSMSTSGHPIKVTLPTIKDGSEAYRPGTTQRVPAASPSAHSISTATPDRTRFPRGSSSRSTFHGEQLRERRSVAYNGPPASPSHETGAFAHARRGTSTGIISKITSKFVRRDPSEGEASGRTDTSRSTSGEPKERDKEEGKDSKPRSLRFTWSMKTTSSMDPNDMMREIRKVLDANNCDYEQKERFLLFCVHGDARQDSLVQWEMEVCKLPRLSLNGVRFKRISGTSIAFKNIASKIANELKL

[13] = biological target: Ribosomal protein S6 kinase alpha-4 (Homo sapiens) (UniProt O75676); assay: Inhibition of human RPS6KA4 at 500 nM by HotSpot assay relative to control
[14] = biological target: Ribosomal protein S6 kinase beta-2 (Homo sapiens) (UniProt Q9UBS0); assay: Inhibition of human RPS6KB2 at 500 nM by HotSpot assay relative to control
Chain of Ribosomal protein S6 kinase beta-2 (Homo sapiens) (Q9UBS0 whole entry): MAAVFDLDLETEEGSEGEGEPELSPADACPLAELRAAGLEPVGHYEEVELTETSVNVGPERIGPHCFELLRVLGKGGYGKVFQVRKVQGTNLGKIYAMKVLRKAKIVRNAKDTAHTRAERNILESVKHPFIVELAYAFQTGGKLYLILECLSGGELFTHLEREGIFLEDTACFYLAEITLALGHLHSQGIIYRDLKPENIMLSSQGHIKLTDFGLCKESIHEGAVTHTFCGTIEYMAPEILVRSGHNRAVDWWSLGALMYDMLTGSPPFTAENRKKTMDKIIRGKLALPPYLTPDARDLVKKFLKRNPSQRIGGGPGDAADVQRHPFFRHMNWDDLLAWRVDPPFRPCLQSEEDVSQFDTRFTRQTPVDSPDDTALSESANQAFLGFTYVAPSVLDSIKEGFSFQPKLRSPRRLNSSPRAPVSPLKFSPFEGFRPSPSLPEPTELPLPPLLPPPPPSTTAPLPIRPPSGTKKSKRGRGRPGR

Homo sapiens = species on record: Homo sapiens; assay: Inhibition of human TAO1 at 500 nM by HotSpot assay relative to control
[15] = biological target: Leukocyte tyrosine kinase receptor (Homo sapiens) (UniProt P29376); assay: Inhibition of human LTK at 500 nM by HotSpot assay relative to control
Chain of Leukocyte tyrosine kinase receptor (Homo sapiens) (P29376 whole entry): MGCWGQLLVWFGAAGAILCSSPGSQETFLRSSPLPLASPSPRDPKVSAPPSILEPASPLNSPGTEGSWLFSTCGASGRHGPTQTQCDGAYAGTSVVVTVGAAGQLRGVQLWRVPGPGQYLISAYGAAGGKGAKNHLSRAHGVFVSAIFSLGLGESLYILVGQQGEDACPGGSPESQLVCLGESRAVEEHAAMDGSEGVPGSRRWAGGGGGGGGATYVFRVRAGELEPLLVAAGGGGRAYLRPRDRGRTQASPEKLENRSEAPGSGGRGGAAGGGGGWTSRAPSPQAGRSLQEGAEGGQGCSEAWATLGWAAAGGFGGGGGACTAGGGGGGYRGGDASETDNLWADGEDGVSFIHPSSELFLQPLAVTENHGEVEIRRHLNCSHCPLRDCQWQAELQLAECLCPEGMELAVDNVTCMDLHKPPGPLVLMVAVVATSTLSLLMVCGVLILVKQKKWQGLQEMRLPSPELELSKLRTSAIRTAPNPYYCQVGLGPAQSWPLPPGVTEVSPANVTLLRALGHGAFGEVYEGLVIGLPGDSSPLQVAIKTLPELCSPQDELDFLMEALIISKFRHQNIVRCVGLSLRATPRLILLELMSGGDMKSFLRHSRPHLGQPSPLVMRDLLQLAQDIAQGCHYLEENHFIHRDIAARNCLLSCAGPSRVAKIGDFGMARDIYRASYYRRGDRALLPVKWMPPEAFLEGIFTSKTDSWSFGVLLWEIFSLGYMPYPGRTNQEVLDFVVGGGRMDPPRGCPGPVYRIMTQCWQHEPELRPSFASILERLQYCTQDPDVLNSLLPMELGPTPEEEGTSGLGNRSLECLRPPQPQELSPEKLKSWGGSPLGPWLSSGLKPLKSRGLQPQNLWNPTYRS

Chain of RAC-gamma serine/threonine-protein kinase (Homo sapiens) (Q9Y243 whole entry): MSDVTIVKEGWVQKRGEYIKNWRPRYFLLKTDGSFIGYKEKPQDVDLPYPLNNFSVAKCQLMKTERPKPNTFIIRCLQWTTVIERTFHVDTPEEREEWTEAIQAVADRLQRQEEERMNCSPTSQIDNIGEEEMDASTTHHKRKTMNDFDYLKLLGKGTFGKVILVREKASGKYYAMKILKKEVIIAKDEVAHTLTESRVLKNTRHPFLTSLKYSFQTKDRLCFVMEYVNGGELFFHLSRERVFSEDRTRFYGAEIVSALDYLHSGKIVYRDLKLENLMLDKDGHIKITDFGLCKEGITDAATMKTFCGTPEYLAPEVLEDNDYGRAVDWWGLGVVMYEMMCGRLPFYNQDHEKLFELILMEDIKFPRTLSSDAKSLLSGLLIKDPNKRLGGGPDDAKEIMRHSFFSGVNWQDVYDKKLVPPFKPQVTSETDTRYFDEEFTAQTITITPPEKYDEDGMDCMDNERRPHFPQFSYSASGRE

Compound: Nc1n[nH]c2nnc(-c3c(-c4ccccc4)nn4ccccc34)cc12
- inhibition [1]: 2.52%
- inhibition [2]: 7.47%
- inhibition [3]: 1.41%
- inhibition [4]: 6.42%
- inhibition [5]: -2.07%
- inhibition [6]: -1.27%
- inhibition [7]: -0.36%
- inhibition [8]: 1.48%
- inhibition [9]: -3.37%
- inhibition [10]: -0.27%
- inhibition [11]: -1.79%
- inhibition [12]: 2.04%
- inhibition [13]: 5.31%
- inhibition [14]: -4.11%
- inhibition (Homo sapiens): -1.14%
- inhibition [15]: 9.45%

Compound: Oc1n[nH]c2nnc(-c3c(-c4ccccc4)nn4ccccc34)cc12
- inhibition [1]: 2.1%
- inhibition [2]: 1.9%
- inhibition [3]: -2.29%
- inhibition [4]: 9.23%
- inhibition [5]: -5.26%
- inhibition [6]: 2.27%
- inhibition [7]: -0.94%
- inhibition [8]: -4.88%
- inhibition [9]: -1.38%
- inhibition [10]: -6.61%
- inhibition [11]: -0.03%
- inhibition [12]: 4.47%
- inhibition [13]: 1.99%
- inhibition [14]: -8.15%
- inhibition (Homo sapiens): 1.69%
- inhibition [15]: -7.87%
